Source: patent US20260167637A1, “NLRP3 INFLAMMASOME INHIBITOR AND USE THEREOF” (TransThera Sciences (Nanjing), Inc., priority 2022, published 2026)

How the values were obtained:
[1] = Pharmacokinetic study in male SD rats; type: in vivo; conditions: rat, plasma; for clearance: read-out: Cl—obs iv (clearance rate) (converted); for Vd: read-out: Vss iv (distribution volume); for bioavailability: po 5 mg/kg vs iv 1 mg/kg, read-out: F% (absolute bioavailability); for Tmax: median, read-out: Tmax po (time to peak plasma concentration); for Cmax: read-out: Cmax po (peak concentration)
Protocol: Experimental Example 4: Pharmacokinetic Study of Compounds in Male SD Rats
(§1) The compounds were prepared into solutions using a mixed vehicle composed of 5% dimethyl sulfoxide, 20% (30% solutol), and 75% normal saline. The compound solutions were intragastrically administered to male SD rats at a dose of 5.0 mg/kg, and the blood collection time points were: 15 min, 30 min, 1 h, 2 h, 4 h, 6 h, 8 h, 10 h, and 24 h.
as §1, with “intravenously injected into” for “intragastrically administered to”, “1.0” for “5.0”, “were: 5 min,” for “were:”, “4h,” for “4 h,”, “8h,” for “8 h,”
Intravenous catheterization was performed on the animals the day before the administration. After the administration, blood samples of about 300 μL were collected from the jugular vein and placed into anticoagulation tubes containing EDTA-K2. The blood samples were centrifuged at 5000 rpm at 4° C. for 10 min to give plasma samples. The plasma samples were prepared within 30 min after blood collection. The plasma samples were stored in a −80° C. freezer before testing.

[2] = Pharmacokinetic study in mice; type: in vivo, female C57BL/6J mice; conditions: female, C57BL/6J, mouse, plasma; for clearance: read-out: Cl—obs iv (clearance rate) (converted); for Vd: read-out: Vss iv (distribution volume); for bioavailability: po 10 mg/kg vs iv 5 mg/kg, read-out: F% (absolute bioavailability); for Tmax: median, read-out: Tmax po (time to peak plasma concentration); for Cmax: read-out: Cmax po (peak concentration)
Protocol: as §1, with “female C57BL/6J mice” for “male SD rats”, “10” for “5.0”, “h,” for “h, 10 h,”
as §1, with “intravenously injected into female C57BL/6J mice” for “intragastrically administered to male SD rats”, “5” for “5.0”, “were: 5 min,” for “were:”, “h,” for “h, 10 h,”
The samples to be tested were taken out from a −80° C. freezer, naturally thawed at room temperature, and then vortexed for 5 min.
Plasma samples of 10 μL from different individuals were accurately pipetted into 1.5 mL centrifuge tubes.
900 μL of a 100 ng/mL internal standard working solution (a solution of tolbutamide in acetonitrile) was added, and the mixture was well mixed.
After 5 min of vortexing, centrifugation was performed at 12,000 rpm for 5 min.
50 μL of the supernatant was accurately pipetted into a 96-well plate to which water was added in advance at 150 μL/well.
After 5 min of vortexing, LC-MS/MS analysis was performed.
The results of the test substance concentrations were output by Analyst 1.6.3 of AB Sciex.
Parameters such as mean, standard deviation, and coefficient of variation (excluding those output directly by Analyst 1.6.3) were calculated using Microsoft Excel. PK parameters were calculated using WinNonlin Phenoix 8.2 software NCA (Tmax was a median).

[3] = iv 1 mg/kg, read-out: AUClast iv (0-24 h)
[4] = iv 1 mg/kg, read-out: tz1/2 iv (terminal half-life) (converted)
[5] = po 5 mg/kg, read-out: AUClast po (0-24 h)
[6] = po 5 mg/kg, read-out: tz1/2 po (terminal half-life) (converted)
[7] = iv 5 mg/kg, read-out: AUClast iv (0-24 h)
[8] = iv 5 mg/kg, read-out: tz1/2 iv (terminal half-life) (converted)
[9] = po 10 mg/kg, read-out: AUClast po (0-24 h)
[10] = po 10 mg/kg, read-out: tz1/2 po (terminal half-life) (converted)

`C#Cc1ccc(-c2nnc(N[C@@H]3CCCN(C)C3)c(=O)n2C)c(O)c1` [Compound 23, (R)-3-(4-ethynyl-2-hydoxyphenyl)-4-methyl-6-((1-methylpiperidin-3-yl)amino)-1,2,4-triazin-5(4H)-one] gave an AUC(0-t) [1, 3] of 1860 ng·h/mL, a clearance ([1]; iv 1 mg/kg) of 7.95 mL/min/kg and a Vd ([1]; iv 1 mg/kg) of 2.15 L/kg. It also gave a half-life [1, 4] of 3.24 h, a bioavailability [1] of 81% and a Tmax ([1]; po 5 mg/kg) of 0.5 h. It also gave an AUC(0-t) [1, 5] of 8480 ng·h/mL, a Cmax ([1]; po 5 mg/kg) of 1260 ng/mL and a half-life [1, 6] of 3.54 h. It also gave an AUC(0-t) [2, 7] of 3230 ng·h/mL, a clearance ([2]; iv 5 mg/kg) of 25.7 mL/min/kg and a Vd ([2]; iv 5 mg/kg) of 1.65 L/kg. It also gave a half-life [2, 8] of 0.92 h, a bioavailability [2] of 85.7% and a Tmax ([2]; po 10 mg/kg) of 0.5 h. It also gave an AUC(0-t) [2, 9] of 5530 ng·h/mL, a Cmax ([2]; po 10 mg/kg) of 3030 ng/mL and a half-life [2, 10] of 0.983 h.

For `C#Cc1ccc(-c2nnc(N[C@@H]3CCCN(CCO)C3)cc2C2CC2)c(O)c1` [Compound 45, (R)-2-(4-Cyclopropyl-6-((1-(2-hydroxyethyl)piperidin-3-yl)amino)pyridazin-3-yl)-5-ethynylphenol], the AUC(0-t) [1, 3] was 1920 ng·h/mL, the clearance ([1]; iv 1 mg/kg) was 8.38 mL/min/kg and the Vd ([1]; iv 1 mg/kg) was 3.28 L/kg. For the same compound, the half-life [1, 4] was 5.63 h, the bioavailability [1] was 71.5% and the Tmax ([1]; po 5 mg/kg) was 4 h. It also gave an AUC(0-t) [1, 5] of 6840 ng·h/mL, a Cmax ([1]; po 5 mg/kg) of 629 ng/mL and a half-life [1, 6] of 5.19 h. The AUC(0-t) [2, 7] was 11400 ng·h/mL, the clearance ([2]; iv 5 mg/kg) was 7.27 mL/min/kg and the Vd ([2]; iv 5 mg/kg) was 1.47 L/kg. It also gave a half-life [2, 8] of 3.57 h, a bioavailability [2] of 83.7% and a Tmax ([2]; po 10 mg/kg) of 1 h. For the same compound, the AUC(0-t) [2, 9] was 19100 ng·h/mL, the Cmax ([2]; po 10 mg/kg) was 4130 ng/mL and the half-life [2, 10] was 3.18 h.
